In article PMC8318231, “Rate-of-Kill (RoK) assays to triage large compound sets for Chagas disease drug discovery: Application to GSK Chagas Box” (PLoS Neglected Tropical Diseases, 2021):

What was measured:
[1] = test system: T. cruzi Tulahuen trypomastigotes; experiment: T. cruzi trypomastigote assay (Cell Titer-Glo viability, ATP luminescence); assay type: cell-based, Trypanosoma cruzi; conditions: for Trypomastigotes pIC50 48 hours: 48 hours incubation; for Trypomastigotes pIC50 48 hours / Trypomastigotes pIC50 72 hours: pIC50 = -log10 IC50 in molar units; for Trypomastigotes pIC50 72 hours: 72 hours incubation; for 72 pIC50 (trypomastigotes, raw data of Fig 1D): 72 hours, plotted values, censored values given without sign; for 48 pIC50 / 72 pIC50: trypomastigote assay; for 48 pIC50: 48 h; for 72 pIC50: 72 h
How it was run: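 Tulahuen trypomastigotes from infected LLC-MK2 culture supernatants (days 5–8) plated at 5 × 10^4 per well in DMEM/2% FBS with compound at 5 μM single-shot final or in dose response. Viability by CellTiter-Glo ATP luminescence after 10 min at room temperature, normalised to no-cell (100%) and DMSO (0%) controls.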

[2] = test system: TcCYP51; conditions: formerly reported; cited from earlier work
[3] = test system: H9c2 (rat cardiomyocytes); experiment: RoK assay, number of host cells nuclei (drug-related cytotoxicity, H9c2 output, Cmin_Tox); conditions: H9c2 host cells
Protocol: For this high-content intracellular imaging assay, H9c2 cells were seeded in 225 cm^2 T- FLASK in DMEM with 10% FBS for 4 h to allow attachment. T. cruzi trypomastigotes, collected at days 5 to 8 after infection from LLC-MK2 parasite infected cultures, were allowed to swim out for 4 h at 37°C from a centrifuged pellet (1,600 x g / 10 min). Trypomastigotes were then collected and counted in a CASY Cell Counter using the 60 μm capillary. […] Cells were washed once with PBS before incubation of the infected H9c2 monolayer with trypsin (Life-Technologies) to detach cells from the flask. Cells were counted in a CASY Cell Counter, using the 150 μm capillary, and their density set at 5 x 10^4 cells/mL in supplemented DMEM. Infected H9c2 were dispensed into 384-well plates at 50 μL per well using a Multidrop Combi dispenser. Control wells used to determine a 100% parasitic growth (full 6th column of each plate) were left untreated, whereas not infected cells were added in the control wells used as 0% parasite growth (or 100% parasite growth inhibition; full 18th column of each plate). The four plates corresponding to each RoK assay were predispensed for the same mother plate. […] Cultures were then fixed and stained with 50 μL per well of a PBS solution containing 4% formaldehyde and 2 μM DRAQ5 DNA dye (BioStatus, UK). Then plates were read in a PerkinElmer Opera Phenix using a 20x objective, 3 fields per well. DRAQ5 signal was detected using 640 nm excitation laser and a 690/50 nm emission detection filter. Automated image analysis was performed with a script developed on Acapella High Content Imaging and Analysis Software (PerkinElmer). Two outputs were provided for each sample well: (1) number of host cells nuclei to determine drug-related cytotoxicity (aka H9c2) and (2) number of amastigotes per cell as infection level measurement (aka AM/CELL). Each output is plotted as a time course for each compound at every concentration. This assay was adapted from Alonso-Padilla et al. and Peña et al..
• ME (Maximum Effect) is the maximum percentage of parasite burden reduction reached by any compound concentration. Compounds that decrease the initial parasite load will show a positive value of ME, whereas compounds that allow the progression of infection will render a negative ME value. […] It is calculated for the MCC50 (t50%_MCC50) and for the maximum concentration (t50%_Cmax). […] The value of this parameter is not either interpolated or extrapolated, and it refers to the first experimental time-course point at which a 50% of effect is reached or exceeded. • tlag defines the time elapsed for one particular concentration to reduce parasite burden between two consecutive points at any moment of the time course. It is calculated for the MCC50 (tlag_MCC50) and for the maximum concentration (tlag_Cmax). The value of this parameter is not either interpolated or extrapolated, and it refers to the first experimental time-course point of a positive slope in the normalised plot (i.e. %Cidal_Response). • Cmin_Tox (Minimal CytoToxic Concentration) is the lowest compound concentration that is reducing the number of host mammalian cells below 50% of initial cell density. Cytotoxic compounds may mislead a bona fide antiparasitic action. Therefore, this descriptor is used to flag this kind of compounds and warn about the genuine meaning of the rest of descriptors.

## Cc1c(C#N)c([N+](=O)[O-])nn1Cc1cccc(Cl)c1Cl [TCMDC-143152]
[1]
  Trypomastigotes pIC50 48 hours: 6.1
  Trypomastigotes pIC50 72 hours: 6.1
  72 pIC50 (trypomastigotes, raw data of Fig 1D): 6.1
[1]; figure 1A
  48 pIC50: 6.1
  72 pIC50: 6.1
[1]; figure 1B
  72 pIC50: 6.1
[2]
  CYP51 pIC50: < 4
[3]
  Cmin_Tox: >50 µM

## Cc1[nH]nc2c1C(c1ccc(OCc3ccccc3F)cc1)SCC(=O)N2 (centres unmarked) [TCMDC-143328]
[1]
  Trypomastigotes pIC50 48 hours: 5.1
  Trypomastigotes pIC50 72 hours: 5.1
  72 pIC50 (trypomastigotes, raw data of Fig 1D): 5.1
[1]; figure 1A
  48 pIC50: 5.1
  72 pIC50: 5.1
[1]; figure 1B
  72 pIC50: 5.1
[2]
  CYP51 pIC50: < 4
[3]
  Cmin_Tox: >50 µM

## CC(CNS(=O)(=O)c1ccc(OC(F)F)cc1)c1ccc(NC(=O)c2ccncc2)cc1 (centres unmarked) [TCMDC-143535]
[1]
  Trypomastigotes pIC50 48 hours: 4.6
  Trypomastigotes pIC50 72 hours: 4.4
[2]
  CYP51 pIC50: 7.3
[3]
  Cmin_Tox: >50 µM

## O[C@H]1CC[C@H](Nc2nccc(-c3sc(C4CCOCC4)nc3-c3ccc(F)c(F)c3)n2)CC1 [TCMDC-143387]
[1]
  Trypomastigotes pIC50 48 hours: 4.5
  Trypomastigotes pIC50 72 hours: < 4.3
[2]
  CYP51 pIC50: < 4
[3]
  Cmin_Tox: 16.7 µM

## CC(C)N(C(=O)CN1C(=O)C(N)C(=O)N(c2ccccc2)c2ccccc21)c1ccccc1 (centres unmarked) [TCMDC-143071]
[1]
  Trypomastigotes pIC50 48 hours: < 4.3
  Trypomastigotes pIC50 72 hours: < 4.3
  72 pIC50 (trypomastigotes, raw data of Fig 1D): < 4.3
[1]; figure 1A
  48 pIC50: < 4.3
  72 pIC50: < 4.3
[1]; figure 1B
  72 pIC50: < 4.3
[2]
  CYP51 pIC50: 6.5
[3]
  Cmin_Tox: >50 µM

## O=C(O)/C=C\C(=O)O.O=C(c1ccc(OCCCc2cnc[nH]2)cc1)C1CC1 [TCMDC-143632]
[1]
  Trypomastigotes pIC50 48 hours: < 4.3
  Trypomastigotes pIC50 72 hours: < 4.3
  72 pIC50 (trypomastigotes, raw data of Fig 1D): < 4.3
[1]; figure 1A
  48 pIC50: < 4.3
  72 pIC50: < 4.3
[1]; figure 1B
  72 pIC50: < 4.3
[2]
  CYP51 pIC50: 7.3
[3]
  Cmin_Tox: >50 µM

## CCCN1CCN(Cc2ccc(S(=O)(=O)Nc3cccc(C)c3)cc2)CC1.O=C(O)C(F)(F)F.O=C(O)C(F)(F)F [TCMDC-143550]
[1]
  Trypomastigotes pIC50 48 hours: < 4.3
  Trypomastigotes pIC50 72 hours: < 4.3
  72 pIC50 (trypomastigotes, raw data of Fig 1D): < 4.3
[1]; figure 1A
  48 pIC50: < 4.3
  72 pIC50: < 4.3
[1]; figure 1B
  72 pIC50: < 4.3
[2]
  CYP51 pIC50: < 4
[3]
  Cmin_Tox: >50 µM

## COc1cccc(C(=O)[C@H]2C[C@@H]2CN(Cc2cccnc2)Cc2cccnc2)c1 [TCMDC-143593]
[1]
  Trypomastigotes pIC50 48 hours: 5.2
  Trypomastigotes pIC50 72 hours: < 4.3
[2]
  CYP51 pIC50: 7.2
[3]
  Cmin_Tox: >50 µM

## CS(=O)(=O)c1cccc(CNC(=O)c2cncc(N3CCN(c4ccc(F)cc4)CC3)c2)c1.O=C(O)C(F)(F)F.O=C(O)C(F)(F)F.O=C(O)C(F)(F)F [TCMDC-143385]
[1]
  Trypomastigotes pIC50 48 hours: < 4.3
  Trypomastigotes pIC50 72 hours: < 4.3
  72 pIC50 (trypomastigotes, raw data of Fig 1D): < 4.3
[1]; figure 1A
  48 pIC50: < 4.3
  72 pIC50: < 4.3
[1]; figure 1B
  72 pIC50: < 4.3
[2]
  CYP51 pIC50: 4.9
[3]
  Cmin_Tox: >50 µM

## COc1ccc2ncc(=O)n(CCN3CCOC(CNCc4ccc(C(F)(F)F)cc4F)C3)c2n1 (centres unmarked) [TCMDC-143384]
[1]
  Trypomastigotes pIC50 48 hours: < 4.3
  Trypomastigotes pIC50 72 hours: < 4.3
  72 pIC50 (trypomastigotes, raw data of Fig 1D): < 4.3
[1]; figure 1A
  48 pIC50: < 4.3
  72 pIC50: < 4.3
[1]; figure 1B
  72 pIC50: < 4.3
[2]
  CYP51 pIC50: 5
[3]
  Cmin_Tox: >50 µM

## CCCCNc1nccc(-c2c(-c3ccc(F)cc3)nn3c(N4CCOCC4)cccc23)n1 [TCMDC-143617]
[1]
  Trypomastigotes pIC50 48 hours: 5.1
  Trypomastigotes pIC50 72 hours: < 4.3
[2]
  CYP51 pIC50: < 4
[3]
  Cmin_Tox: >50 µM

## O=C(O)C(F)(F)F.O=c1oc2ccccc2n1C1CCN(Cc2ccccc2-c2cccnc2)CC1 [TCMDC-143389]
[1]
  Trypomastigotes pIC50 48 hours: < 4.3
  Trypomastigotes pIC50 72 hours: < 4.3
  72 pIC50 (trypomastigotes, raw data of Fig 1D): < 4.3
[1]; figure 1A
  48 pIC50: < 4.3
  72 pIC50: < 4.3
[1]; figure 1B
  72 pIC50: < 4.3
[2]
  CYP51 pIC50: 7
[3]
  Cmin_Tox: >50 µM
